Data on one substance can be found in patent US10092515B2, “Liposomal formulations of polymyxin B and uses thereof” (University of Houston System, priority 2012, dated 2018).

Data set [1] can be described thus: Onset of nephrotoxicity (serum creatinine >=2-fold baseline) at escalating daily doses. The class given is in vivo, Sprague-Dawley rats. As to conditions: rats. From the text: Female Sprague-Dawley rats (225 to 250 g) (Harlan, Indianapolis, Ind.) were used. The rats received food and water ad libitum. All animals were cared for in accordance with the highest humane and ethical standards, as approved by the Institutional Animal Care and Use Committee (IACUC) of the University of Houston. The jugular veins of selected animals were cannulated to facilitate intravenous drug administration.
Prior to each experiment, polymyxin B for injection (USP) was reconstituted with sterile water for injection (USP) and diluted to achieve the desired concentration. The reconstituted drug solution was stored at −80° C. in aliquots and thawed immediately before dosing.
To mimic a clinical course of polymyxin B treatment, three groups of rats (n=13 each) were administered escalating dose levels of polymyxin B (5 mg/kg, 10 mg/kg, and 20 mg/kg, respectively) once daily subcutaneously for up to 7 days. Blood samples (approximately 200 μl) were drawn via the tail vein at baseline and on a daily basis (before dosing when applicable). Blood was allowed to clot on ice, and serum was separated by centrifugation at 4,000×g for 10 min. Serum samples (100 μl) were further assayed for creatinine levels by use of a clinical chemistry analyzer (Piccolo Xpress; Abaxis, Inc., Union City, Calif.). A significant elevation in serum creatinine (≥2-fold […] the baseline level) was set as the endpoint for nephrotoxicity. Kaplan-Meier survival analysis and a log rank (Mantel-Cox) test were used to compare the times of onset of nephrotoxicity among various groups. Right censoring was used if the nephrotoxicity endpoint was not observed by day 7.

Data set [2] in a line: Polymyxin B pharmacokinetics in megalin-shedding rats (serum and renal tissue). Type of data set: in vivo, Sprague-Dawley rats. Particulars: for AUC0-∞, renal tissue/AUC0-∞, serum ratio / AUC0-∞, renal tissue / AUC0-∞, serum / renal tissue polymyxin B concentration (3 h postdosing): rats, 3 mg/kg IV. Here is the method:
(§1) A validated ultraperformance liquid chromatography-tandem mass spectrometry (UPLC/MS-MS) method was modified to determine the concentrations of polymyxin B in rat serum and renal tissues, as previously described (32). The lower limit of quantification (LLOQ) was 50 ng/ml for all the major components of polymyxin B in serum as well as the renal tissue homogenate.
To study the impact of sodium maleate pretreatment on systemic/renal exposure of polymyxin B, the rats were divided into two groups (n=13 each). Animals in both control and experimental groups were administered a single intravenous dose of 3 mg/kg of polymyxin B sulfate (USP). The intravenous route of polymyxin B administration was preferred to avoid any interference with drug absorption at the injection site. In addition, the animals in the experimental group were given 400 mg/kg of sodium maleate intraperitoneally 3 to 6 h prior to polymyxin B administration. Serum samples were obtained at 1.5, 3, 4.5, 6, and 7.5 h after polymyxin B dosing. In addition, the rats were sacrificed to harvest the kidneys at 3, 6, and 24 h (n=3 at each time point) postdosing. Polymyxin B concentrations in serum and renal tissue samples were assayed by the validated UPLC-MS/MS method detailed above.
The mean concentrations of polymyxin B in serum, as well as in renal tissue samples, at each time point were used. A modified two-compartment model (data not shown) was used to cofit the serum/renal tissue concentration-time profiles using ADAPT 5 (University of Southern California, Los Angeles, Calif.). Using the best-fit parameters, the AUC0-∞ was estimated by integrating instantaneous concentrations with respect to time. The AUC0-∞, renal tissue/AUC0-∞, serum ratio was used as an index to quantitatively assess preferential accumulation of polymyxin B in renal tissue.
To further examine whether the effect of sodium maleate on the renal accumulation of polymyxin B is transient, three additional rats were given a single dose of 400 mg/kg of sodium maleate intraperitoneally. Two weeks later, the animals were given a single dose of 3 mg/kg of polymyxin B intravenously. The rats were sacrificed at 3 h postdosing; kidneys were harvested and homogenized. Polymyxin B concentrations in renal tissue samples were assayed by the validated UPLC-MS/MS method.

Data set [3] in a line: Renal tissue concentration of polymyxin B at escalating dose levels. Type of data set: in vivo, Sprague-Dawley rats. As to conditions: rats, 24 h after first dose, summed components. The protocol: as §1
To determine the renal tissue concentration of polymyxin B, three rats from each dosing group were randomly selected and sacrificed at 24 h after the first dose; kidneys were harvested and homogenized. A fixed time point was selected to avoid any potential confounding due to different cumulative doses received when nephrotoxocity was observed. The concentrations of the major components of polymyxin B (polymyxin B1, polymyxin B2, polymyxin B3, and isoleucine polymyxin B1) were determined in […] as described above.
For the purpose of drug quantification in the renal tissue homogenates, the estimated concentrations were divided by the total weight of the kidney and the final concentrations were expressed per gram of renal tissue (in micrograms/gram). The summed concentrations of individual components were used to estimate the overall renal drug exposure (33). One-way analysis of variance (ANOVA) and then post hoc Tukey's test were used to compare the mean renal tissue concentrations among the dosing groups, and P values of <0.05 were considered significant.

For data set [4], the system named is P. aeruginosa ATCC 27853 (PA 27853). As to conditions: PA 27853, previously determined; cited from earlier work.
Data set [5] has as its system multiple drug resistant (MDR) Pseudomonas aeruginosa strain (PA 9019). Particulars: PA 9019, previously determined; cited from earlier work.
The mark [6] stands for this setting: experimental group: 400 mg/kg sodium maleate i.p. 3 to 6 h before.

With Polymyxin B, in data set [1] (5 mg/kg once daily subcutaneously up to 7 days), the “animals that reached the predefined nephrotoxicity endpoint by day 7” value was “none”. For the same substance, the “animals that reached the nephrotoxicity endpoint within the first 48 h of treatment” value in data set [1] (10 mg/kg daily subcutaneously) is given as 1 out of 10; in data set [1] (20 mg/kg daily subcutaneously) it was 8 out of 10. For the same substance, in data set [1] (20 mg/kg once daily subcutaneously up to 7 days), the “animals that reached the predefined nephrotoxicity endpoint (serum creatinine >=2-fold baseline)” value was 10 out of 10. Moreover, the “attenuation of polymyxin B exposure in renal tissue after pretreatment with maleate” value in data set [2] (megalin-shedding rats vs control) was “approximately 40%”. Besides, the results for the “AUC0-∞, renal tissue/AUC0-∞, serum ratio” value in data set [2] (control group) and in data set [2] (experimental group (maleate pretreatment)) were 19.1 and 11.6, respectively. Moreover, the “AUC0-∞, renal tissue” value in data set [2] (control group (no maleate)) came out at 211900 ng·h/mL; in data set [2] (setting [6]) it was 121000 ng·h/mL. The “AUC0-∞, serum” value was 10400 ng·h/mL in data set [2] (control group (no maleate)) and 11100 ng·h/mL in data set [2] (setting [6]). The “renal tissue polymyxin B concentration (3 h postdosing)” value is 11.45 µg/g in data set [2] (control rats) and 11.08 µg/g in data set [2] (sodium maleate 400 mg/kg given 2 weeks earlier). The “concentration of polymyxin B in renal tissue” value is 3.6 ± 0.4 µg/g in data set [3] (5-mg/kg dosing group), 9.9 ± 1.5 µg/g in data set [3] (10-mg/kg dosing group) and 21.7 ± 4.8 µg/g in data set [3] (20-mg/kg dosing group). Further, the “minimum inhibitory concentration (MIC)” value in data set [4] was 2 µg/mL; in data set [5], 4 µg/mL.
